System: Histomonas meleagridis
Assay: Growth and viability of in vitro cultivated Histomonas meleagridis
Assay type: cell-based
Conditions: for Histomonas meleagridis cells counted: extrudate corresponding to 200 μg tetra-hydro-iso-α-acid/ml, dimetridazole 400 μg/ml
Method: The effect of a tetra-hydro-iso-α-acids milled extrudate on the growth of Histomonas meleagridis in vitro was investigated. Therefore, a milled extrudate of tetra-hydro-iso-α-acids (corresponding to an amount of 200 μg tetra-hydro-iso-α-acid/ml), a positive control (dimetridazole, concentration of 400 μg/ml) and a negative control (distilled water without addition of any substance) were used. Histomonas meleagridis cells were counted before and after 24, 48 and 72 hours of incubation.

Cc1ncc([N+](=O)[O-])n1C [Dimetridazole, dimetridazole]
Histomonas meleagridis cells counted (0 h (before incubation)): 1 × 10^5 | Histomonas meleagridis cells counted (24 h of incubation): 0 | Histomonas meleagridis cells counted (48 h of incubation): 0 | Histomonas meleagridis cells counted (72 h of incubation): 0 | Effect on Histomonas meleagridis cells (in words) (in vitro, versus negative control): total reduction

From patent publication US20250262262A1, “a-ACID AND/OR B-ACID BASED COPOSITIONS FROM HUMULUS FOR USE IN A HUMAN AND/OR VETERINARY APPLICATION” (Orotech NV, priority 2022, published 2025)
